How the values were obtained:
Format in all cases: functional, cell-based
A549 = test: Cytotoxicity against human A549 cells
P388 = test: Cytotoxicity against mouse P388 cells
HT-29 = test: Cytotoxicity against human HT-29 cells
SK-MEL-28 = test: Cytotoxicity against human SK-MEL-28 cells

Measured: IC50

C[C@H]1C(=O)CC(=O)[C@@H]2[C@]1(C)CC[C@H]1[C@@]2(C)CC[C@@]2(C)[C@@H]3CC(C)(C)CC[C@]3(CO)CC[C@]12C
> 10 µg/mL: all assays above

CC(=O)OC[C@]12CCC(C)(C)C[C@H]1[C@]1(C)CC[C@@]3(C)[C@@H]4C(=O)C=C(OC(C)=O)[C@H](C)[C@@]4(C)CC[C@@H]3[C@@]1(C)CC2
> 10 µg/mL: all assays above
